Data as given in ChEMBL document CHEMBL1909046, “DrugMatrix in vitro pharmacology data”.

What was measured:
[1] = biological target: T1, Alpha-1A adrenergic receptor (Rattus norvegicus, UniProt P43140); assay: DRUGMATRIX: Alpha-1A adrenergic receptor radioligand binding (ligand: prazosin); assay type: cell membranes, Wistar, Submaxillary gland, Membrane; conditions: Not Active = under 50% inhibition at 10 µM; for Ki: read-out: Ki
T1 sequence (P43140 whole entry): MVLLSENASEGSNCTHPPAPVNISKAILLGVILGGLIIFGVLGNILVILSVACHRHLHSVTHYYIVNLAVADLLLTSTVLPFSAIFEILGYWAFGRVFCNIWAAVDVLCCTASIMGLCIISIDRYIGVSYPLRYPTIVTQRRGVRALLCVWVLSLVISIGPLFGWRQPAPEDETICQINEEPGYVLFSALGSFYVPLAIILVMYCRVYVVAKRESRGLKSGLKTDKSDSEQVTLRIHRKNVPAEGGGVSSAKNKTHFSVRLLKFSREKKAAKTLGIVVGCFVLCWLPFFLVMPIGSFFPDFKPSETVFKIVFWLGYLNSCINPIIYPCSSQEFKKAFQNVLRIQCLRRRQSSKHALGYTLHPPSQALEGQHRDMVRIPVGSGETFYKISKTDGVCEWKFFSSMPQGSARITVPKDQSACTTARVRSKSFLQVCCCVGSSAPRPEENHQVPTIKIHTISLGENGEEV

[2] = biological target: Aldo-keto reductase family 1 member B1 (Rattus norvegicus, UniProt P07943); assay: biochemical; assay type: tissue-based, Lens of camera-type eye;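 further: inhibition of aldose reductase enzyme activity, measured with DL-glyceraldehyde as the substrate; in other assays of this panel Not Active means under 50% inhibition at 10 µM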
[3] = DRUGMATRIX: Atrial Natriuretic Factor (ANF) radioligand binding (ligand: [125I] ANF (rat)); assay type: cell membranes, Cavia porcellus, Dunkin-Hartley, Adrenal gland, Membrane; conditions: Not Active = under 50% inhibition at 10 µM
[4] = biological target: T2, C-C chemokine receptor type 4 (Homo sapiens, UniProt P51679); assay type: cell membranes, Membrane; conditions: chem-1; further: in other assays of this panel Not Active means under 50% inhibition at 10 µM
T2 sequence (P51679 whole entry): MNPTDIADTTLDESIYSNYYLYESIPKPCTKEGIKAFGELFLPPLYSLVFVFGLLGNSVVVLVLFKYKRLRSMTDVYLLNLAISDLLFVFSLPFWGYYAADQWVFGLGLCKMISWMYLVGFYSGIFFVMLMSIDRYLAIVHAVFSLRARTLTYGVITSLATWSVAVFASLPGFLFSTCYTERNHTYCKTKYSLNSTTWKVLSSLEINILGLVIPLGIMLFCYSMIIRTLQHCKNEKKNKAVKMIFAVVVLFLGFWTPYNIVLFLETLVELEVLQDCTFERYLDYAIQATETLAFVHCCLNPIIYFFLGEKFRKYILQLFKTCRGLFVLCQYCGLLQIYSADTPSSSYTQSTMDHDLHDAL

[5] = DRUGMATRIX: Glutamate, AMPA radioligand binding (ligand: [3H] AMPA); assay type: cell membranes, Rattus norvegicus, Wistar, Cerebral cortex, Membrane; conditions: Not Active = under 50% inhibition at 10 µM
[6] = DRUGMATRIX: Leukotriene, BLT (LTB4) radioligand binding (ligand: [3H]LTB4); assay type: cell membranes, Membrane; conditions: u-937; Not Active = under 50% inhibition at 10 µM
[7] = biological target: T3, Neuropeptide Y receptor type 1 (Homo sapiens, UniProt P25929); assay type: cell membranes, Membrane; conditions: sk-n-mc; further: in other assays of this panel Not Active means under 50% inhibition at 10 µM
T3 sequence (P25929 whole entry): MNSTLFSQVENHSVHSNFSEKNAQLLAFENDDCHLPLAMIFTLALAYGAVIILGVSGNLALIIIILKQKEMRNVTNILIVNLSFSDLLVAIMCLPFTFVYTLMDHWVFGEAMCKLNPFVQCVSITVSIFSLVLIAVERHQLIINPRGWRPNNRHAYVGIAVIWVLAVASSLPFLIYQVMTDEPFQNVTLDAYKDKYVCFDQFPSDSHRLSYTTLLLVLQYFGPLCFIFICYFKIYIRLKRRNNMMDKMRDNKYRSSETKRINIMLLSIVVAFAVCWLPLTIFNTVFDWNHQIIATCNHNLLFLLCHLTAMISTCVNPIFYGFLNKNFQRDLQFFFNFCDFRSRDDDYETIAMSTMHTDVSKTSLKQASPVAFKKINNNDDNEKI

[8] = DRUGMATRIX: Phorbol Ester radioligand binding (ligand: [3H] PDBu); assay type: cell membranes, Mus musculus, ICR, Brain, Membrane; conditions: Not Active = under 50% inhibition at 10 µM

CN1C[C@H](C(=O)N[C@]2(C)O[C@@]3(O)[C@@H]4CCCN4C(=O)[C@H](Cc4ccccc4)N3C2=O)C[C@@H]2c3cccc4[nH]cc(c34)C[C@H]21 [DIHYDROERGOTAMINE]
2.03 nM: Ki [1]
5.03 nM: IC50 ([1]; read-out: IC50)
Not Active: IC50 [2] | IC50 [3] | Ki [3] | IC50 [4] | IC50 [5] | Ki [5] | IC50 [6] | Ki [6] | IC50 [7] | IC50 [8] | Ki [8]

Cc1c(N(C)CS(=O)(=O)[O-])c(=O)n(-c2ccccc2)n1C.[Na+] [DIPYRONE SODIUM]
Not Active: IC50 [1] | IC50 [2] | IC50 [3] | Ki [3] | IC50 [4] | IC50 [5] | Ki [5] | IC50 [6] | Ki [6] | IC50 [7] | IC50 [8] | Ki [8]

CC(CCc1ccc(O)cc1)NCCc1ccc(O)c(O)c1 (stereo not given) [DOBUTAMINE]
45 nM: Ki [1]
Not Active: IC50 [2] | IC50 [3] | Ki [3] | IC50 [4] | IC50 [5] | Ki [5] | IC50 [6] | Ki [6] | IC50 [7] | IC50 [8] | Ki [8]
110 nM: IC50 ([1]; read-out: IC50)

CCn1cc(C(=O)O)c(=O)c2cc(F)c(N3CCNCC3)nc21 [ENOXACIN]
Not Active: IC50 [1] | IC50 [2] | IC50 [3] | Ki [3] | IC50 [4] | IC50 [5] | Ki [5] | IC50 [6] | Ki [6] | IC50 [7] | IC50 [8] | Ki [8]

CCC(=O)O[C@H]1[C@H](O[C@@H]2[C@@H](C)[C@H](O[C@H]3C[C@@](C)(OC)[C@@H](O)[C@H](C)O3)[C@@H](C)C(=O)O[C@H](CC)[C@@](C)(O)[C@H](O)[C@@H](C)C(=O)[C@H](C)C[C@@]2(C)O)O[C@H](C)C[C@@H]1N(C)C [ERYTHROMYCIN PROPIONATE]
Not Active: IC50 [1] | IC50 [2] | IC50 [3] | Ki [3] | IC50 [4] | IC50 [5] | Ki [5] | IC50 [6] | Ki [6] | IC50 [7] | IC50 [8] | Ki [8]

C=C(CC)C(=O)c1ccc(OCC(=O)O)c(Cl)c1Cl [ETHACRYNIC ACID]
Not Active: IC50 [1] | IC50 [3] | Ki [3] | IC50 [4] | IC50 [5] | Ki [5] | IC50 [6] | Ki [6] | IC50 [7] | IC50 [8] | Ki [8]
1150 nM: IC50 ([2]; read-out: IC50)

C#C[C@]1(O)CC[C@H]2[C@@H]3CCc4cc(O)ccc4[C@H]3CC[C@@]21C [ETHINYL ESTRADIOL]
Not Active: IC50 [1] | IC50 [2] | IC50 [3] | Ki [3] | IC50 [4] | IC50 [5] | Ki [5] | IC50 [6] | Ki [6] | IC50 [7] | IC50 [8] | Ki [8]

OCCO [ETHYLENE GLYCOL]
Not Active: IC50 [1] | IC50 [2] | IC50 [3] | Ki [3] | IC50 [4] | IC50 [5] | Ki [5] | IC50 [6] | Ki [6] | IC50 [7] | IC50 [8] | Ki [8]

CC(=O)OCC(CCn1cnc2cnc(N)nc21)COC(C)=O [FAMCICLOVIR]
Not Active: IC50 [1] | IC50 [2] | IC50 [3] | Ki [3] | IC50 [4] | IC50 [5] | Ki [5] | IC50 [6] | Ki [6] | IC50 [7] | IC50 [8] | Ki [8]
